Test results: patent US20070231260A1, “Transporter-targeted methods of diagnosis and treatment” (priority 2005, published 2007)

Test system: cells that overexpress MCT1
Test: Cytotoxicity (GI50) of bromopyruvate in cells not expressing MCT1 (-TET) and induced to express MCT1 (+TET)
Type: cell-based
Details: GI50, +TET vs -TET cells; FIG. 2

O=C(O)C(=O)CBr [bromopyruvate, Bromopyruvate]
fold higher toxicity to cells that overexpress MCT1: more than 20 times
